# Measurements published in publication PMC3465515 (Nuclear medicine and biology, 2012).
# Where two headings read alike, the source gives them in different places.
# How the values were obtained:
# [1] = target: human ERβ (Homo sapiens, UniProt Q92731); experiment: competitive radiometric binding assay with [3H]estradiol, ERβ; conditions: for β/α ratio: ratio of RBA ERβ to RBA ERα
# [2] = target: T1, human ERα (Homo sapiens, UniProt P03372); experiment: competitive radiometric binding assay with [3H]estradiol, ERα
# T1 sequence (P03372 1-595): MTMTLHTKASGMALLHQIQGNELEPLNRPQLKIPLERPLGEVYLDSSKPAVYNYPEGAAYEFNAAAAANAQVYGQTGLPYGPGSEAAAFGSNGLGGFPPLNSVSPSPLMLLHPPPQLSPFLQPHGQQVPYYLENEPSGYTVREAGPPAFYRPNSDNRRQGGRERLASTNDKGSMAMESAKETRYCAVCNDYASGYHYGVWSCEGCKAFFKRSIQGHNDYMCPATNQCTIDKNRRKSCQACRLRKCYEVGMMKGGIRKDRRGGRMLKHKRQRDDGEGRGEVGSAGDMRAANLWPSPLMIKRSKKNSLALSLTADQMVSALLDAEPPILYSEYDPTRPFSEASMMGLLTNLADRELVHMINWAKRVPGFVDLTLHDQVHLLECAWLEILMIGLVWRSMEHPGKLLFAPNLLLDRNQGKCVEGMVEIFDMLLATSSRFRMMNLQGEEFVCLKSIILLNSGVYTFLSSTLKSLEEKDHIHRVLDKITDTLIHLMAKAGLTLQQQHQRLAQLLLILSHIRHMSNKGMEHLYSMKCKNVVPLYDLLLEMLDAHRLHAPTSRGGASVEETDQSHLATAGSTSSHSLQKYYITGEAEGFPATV
# [3] = estradiol = 100, purified full-length human ERβ, 18-24 h at 0 °C
# [4] = estradiol = 100, purified full-length human ERα, 18-24 h at 0 °C
# Chain of human ERβ (Q92731 whole entry): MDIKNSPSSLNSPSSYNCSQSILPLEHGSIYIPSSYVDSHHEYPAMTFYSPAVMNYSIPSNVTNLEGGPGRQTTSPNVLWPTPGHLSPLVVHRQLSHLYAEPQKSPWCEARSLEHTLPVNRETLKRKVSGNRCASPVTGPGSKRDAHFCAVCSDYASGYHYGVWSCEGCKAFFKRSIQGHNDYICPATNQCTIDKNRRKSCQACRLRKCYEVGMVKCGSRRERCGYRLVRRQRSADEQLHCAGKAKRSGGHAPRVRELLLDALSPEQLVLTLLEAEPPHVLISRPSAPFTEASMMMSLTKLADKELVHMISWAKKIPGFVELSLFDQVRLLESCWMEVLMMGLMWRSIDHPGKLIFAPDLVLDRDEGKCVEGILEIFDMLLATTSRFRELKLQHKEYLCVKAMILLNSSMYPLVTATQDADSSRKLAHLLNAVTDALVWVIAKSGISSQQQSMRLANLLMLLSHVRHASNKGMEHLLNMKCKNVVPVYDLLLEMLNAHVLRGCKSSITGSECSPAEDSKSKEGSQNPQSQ
Compound,"Relative Binding Affinity (RBA) ERβ [1, 3] [%]",β/α ratio [1],"Relative Binding Affinity (RBA) ERα [2, 4] [%]",Relative Binding Affinity (RBA) ERβ [1] [%],Relative Binding Affinity (RBA) ERα [2] [%],"fold lower affinity than parent 8BVE2, ERβ ([1]; vs 8β-vinylestradiol) [fold]","fold lower affinity than parent 8BVE2, ERα ([2]; vs 8β-vinylestradiol) [fold]"
N#C[C@H](c1ccc(O)cc1)[C@@H](CCF)c1ccc(O)cc1 [FEDPN],8.74 ± 1.87,20,0.43 ± 0.09,,,,
C=Cc1cc(O)cc2nc(-c3ccc(O)c(F)c3)oc12 [ERB-041],,460,,3.22 ± 0.91,0.007 ± 0.001,,
"C=C[C@@]12CCc3cc(O)ccc3[C@H]1CC[C@@]1(C)[C@H]2CC[C@@H]1O [compound 1, 8β-Vinyl-estra-1,3,5(10)-triene-3,17β-diol]",105,350,0.30,,,,
"C[C@]12CC[C@@H]3c4ccc(O)cc4CC[C@@]3(CCF)[C@@H]1CC[C@@H]2O [compound 6, 8β-(2-Fluoroethyl)estra-1,3,5(10)-trien-3,17β-diol]",8.27 ± 0.98,179,0.046 ± 0.005,,,~10,~10
